Test results published in patent publication US20250302714A1, “ORAL HEALTH AGENT AND COMPOSITION FOR USE IN DOMESTIC ANIMALS” (priority 2022, published 2025).

Tested on: canine oral microbiome
Experiment: Controlled clinical study in beagles: oral swab sequencing of the canine oral microbiome
Format: in vivo, dog (beagles)
Conditions: 14 beagles, arginine powder mixture (1.5% L-arginine) twice daily after meals, 28 days post dental cleaning, oral swabs, global sequencing
Procedure: In vitro and in vivo studies were required to assert the activity of arginine in oral care of domestic animals. […] Controlled clinical studies were performed in 14 beagles fed an arginine powder mixture (Table 2) twice daily after meals. Dental assessments were performed using photographic inspection after the application of a biofilm disclosing agent. Animals were fed the mixture for 28 days prior to final assessment. Oral swab samples were collected at days 0, 7, 14 and 28 and subjected to global sequencing studies.
In this study bacterial populations were clustered and plotted in separate figures. Data was obtained after 28 days of treatment post dental cleaning.

SMILES: N=C(N)NCCC[C@H](N)C(=O)O [arginine, L-arginine]
- relative abundance of oral bacterial populations, treated vs control animals: shift towards healthy oral bacterial populations
